Where two headings read alike, the source gives them in different places.
Key:
Assay in all cases: NCI one-dose SRB anti-proliferative screen
Format in all cases: cell-based
UACC-62 = settings: Homo sapiens, read-out: Cell growth inhibition %
Summary of the method: (§1)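 The selected hybrids underwent one-dose evaluation at 10 µM. Cellular growth was estimated by colorimetric detection of bound sulforhodamine B. Lines came from a sixty-member panel representing nine tumour types.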

SK-MEL-28 = settings: Homo sapiens, read-out: Cell growth inhibition %
Summary of the method: as §1

SF-539 = settings: Homo sapiens, read-out: Cell growth inhibition %
Summary of the method: as §1

NCI-H23 = settings: Homo sapiens, read-out: Cell growth inhibition %
Summary of the method: as §1

NCI-H522 = settings: Homo sapiens, read-out: Cell growth inhibition %
Summary of the method: as §1

TK-10 = settings: Homo sapiens, read-out: Cell growth inhibition %
Summary of the method: as §1

OVCAR-3 = settings: Homo sapiens, read-out: Cell growth inhibition %
Summary of the method: as §1

SR = settings: Homo sapiens, read-out: Cell growth inhibition %
Summary of the method: as §1

M14 = settings: Homo sapiens, read-out: Cell growth inhibition %
Summary of the method: as §1

SK-MEL-2 = settings: Homo sapiens, read-out: Cell growth inhibition %
Summary of the method: as §1

ACHN = settings: Homo sapiens, read-out: Cell growth inhibition %
Summary of the method: as §1

HCT-15 = settings: Homo sapiens, read-out: Cell growth inhibition %
Summary of the method: as §1

UO-31 = settings: Homo sapiens, read-out: Cell growth inhibition %
Summary of the method: as §1

PC-3 = settings: Homo sapiens, read-out: Cell growth inhibition %
Summary of the method: as §1

NCI-H322M = settings: Homo sapiens, read-out: Cell growth inhibition %
Summary of the method: as §1

OVCAR-4 = settings: Homo sapiens, read-out: Cell growth inhibition %
Summary of the method: as §1

U251 = settings: Homo sapiens, U-251, read-out: Cell growth inhibition %
Summary of the method: as §1

SN12C = settings: Homo sapiens, read-out: Cell growth inhibition %
Summary of the method: as §1

786-0 = settings: Homo sapiens, read-out: Cell growth inhibition %
Summary of the method: as §1

A549/ATCC = settings: Homo sapiens, read-out: Cell growth inhibition %
Summary of the method: as §1

NCI-H226 = settings: Homo sapiens, read-out: Cell growth inhibition %
Summary of the method: as §1

MALME-3M = settings: Homo sapiens, read-out: Cell growth inhibition %
Summary of the method: as §1

LOX IMVI = settings: Homo sapiens, read-out: Cell growth inhibition %
Summary of the method: as §1

BT-549 = settings: Homo sapiens, read-out: Cell growth inhibition %
Summary of the method: as §1

OVCAR-5 = settings: Homo sapiens, read-out: Cell growth inhibition %
Summary of the method: as §1

A498 = settings: Homo sapiens, read-out: Cell growth inhibition %
Summary of the method: as §1

OVCAR-8 = settings: Homo sapiens, read-out: Cell growth inhibition %
Summary of the method: as §1

MDA-MB-435 = settings: Homo sapiens, read-out: Cell growth inhibition %
Summary of the method: as §1

HL-60(TB) = settings: Homo sapiens, read-out: Cell growth inhibition %
Summary of the method: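 Activity reflects a single-point exposure at 10 µM, with cell mass determined by a sulforhodamine B dye assay.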

NCI/ADR-RES = settings: Homo sapiens, read-out: Cell growth inhibition %
Summary of the method: as §1

MDA-MB-231/ATCC = settings: Homo sapiens, read-out: Cell growth inhibition %
Summary of the method: as §1

COc1ccc(-c2nc3cc(-c4nnc(SCC(=O)Nc5ccc(C(=O)/C=C/c6cc(OC)c(OC)c(OC)c6)cc5)o4)ccc3[nH]2)cc1 [Compound 7o, 2-{5-[2-(4-Methoxyphenyl)-1 H-benzo[d]imidazol-5-yl]-1,3,4-oxadiazol-2-ylthio}-N-{4-[(E)-3-(3,4,5-trimethoxyphenyl)acryloyl]phenyl}acetamide]
inhibition at 10 µM (UACC-62; UACC-62, Melanoma, NCI one dose): 5.12%
inhibition at 10 µM (SK-MEL-28; SK-MEL-28, Melanoma, NCI one dose): 0%
inhibition at 10 µM (SF-539; SF-539, CNS Cancer, NCI one dose): 2.1%
inhibition at 10 µM (NCI-H23; NCI-H23, Non-Small Cell Lung Cancer, NCI one dose): 0%
inhibition at 10 µM (NCI-H522; NCI-H522, Non-Small Cell Lung Cancer, NCI one dose): 0%
inhibition at 10 µM (TK-10; TK-10, Renal cancer, NCI one dose): 0%
inhibition at 10 µM (OVCAR-3; OVCAR-3, Ovarian Cancer, NCI one dose): 0%
inhibition at 10 µM (SR; SR, Leukemia, NCI one dose): 15.2%
inhibition at 10 µM (M14; M14, Melanoma, NCI one dose): 0%
inhibition at 10 µM (SK-MEL-2; SK-MEL-2, Melanoma, NCI one dose): 0%
inhibition at 10 µM (ACHN; ACHN, Renal cancer, NCI one dose): 0%
inhibition at 10 µM (HCT-15; HCT-15, Colon cancer, NCI one dose): 0%
inhibition at 10 µM (UO-31; UO-31, Renal cancer, NCI one dose): 12.2%
inhibition at 10 µM (PC-3; PC-3, Prostate Cancer, NCI one dose): 0%
inhibition at 10 µM (NCI-H322M; NCI-H322M, Non-Small Cell Lung Cancer, NCI one dose): 0%
inhibition at 10 µM (OVCAR-4; OVCAR-4, Ovarian Cancer, NCI one dose): 0%
inhibition at 10 µM (U251; U251, CNS Cancer, NCI one dose): 3.23%
inhibition at 10 µM (SN12C; SN 12C, Renal cancer, NCI one dose): 0%
inhibition at 10 µM (786-0; 786-0, Renal cancer, NCI one dose): 0%
inhibition at 10 µM (A549/ATCC; A549/ATCC, Non-Small Cell Lung Cancer, NCI one dose): 0%
inhibition at 10 µM (NCI-H226; NCI-H226, Non-Small Cell Lung Cancer, NCI one dose): 2.19%
inhibition at 10 µM (MALME-3M; MALME-3M, Melanoma, NCI one dose): 3.93%
inhibition at 10 µM (LOX IMVI; Melanoma, NCI one dose): 22.9%
inhibition at 10 µM (BT-549; BT-549, Breast cancer, NCI one dose): 0%
inhibition at 10 µM (OVCAR-5; OVCAR-5, Ovarian Cancer, NCI one dose): 0%
inhibition at 10 µM (A498; A498, Renal cancer, NCI one dose): 0%
inhibition at 10 µM (OVCAR-8; OVCAR-8, Ovarian Cancer, NCI one dose): 0%
inhibition at 10 µM (MDA-MB-435; MDA-MB-435, Melanoma, NCI one dose): 0%
inhibition at 10 µM (HL-60(TB); HL-60(TB), Leukemia, NCI one dose): 0%
inhibition at 10 µM (NCI/ADR-RES; NCI/ADR-RES, Ovarian Cancer, NCI one dose): 0%
inhibition at 10 µM (MDA-MB-231/ATCC; MDA-MB-231/ATCC, Breast cancer, NCI one dose): 2.18%

O=C(CSc1nnc(-c2ccc3[nH]c(-c4ccc(Cl)cc4)nc3c2)o1)Nc1ccc(C(=O)/C=C/c2ccccc2)cc1 [Compound 7f, 2-{5-[2-(4-Chlorophenyl)-1 H-benzo[d]imidazol-5-yl]-1,3,4-oxadiazol-2-ylthio}-N-{4-[(E)-3-phenylacryloyl]phenyl}acetamide]
inhibition at 10 µM (UACC-62; UACC-62 (Melanoma), NCI one dose 10 µM): 5.12%
inhibition at 10 µM (SK-MEL-28; SK-MEL-28 (Melanoma), NCI one dose 10 µM): 0%
inhibition at 10 µM (SF-539; SF-539 (CNS Cancer), NCI one dose 10 µM): 2.1%
inhibition at 10 µM (NCI-H23; NCI-H23 (Non-Small Cell Lung Cancer), NCI one dose 10 µM): 0%
inhibition at 10 µM (NCI-H522; NCI-H522 (Non-Small Cell Lung Cancer), NCI one dose 10 µM): 0%
inhibition at 10 µM (TK-10; TK-10 (Renal Cancer), NCI one dose 10 µM): 0%
inhibition at 10 µM (OVCAR-3; OVCAR-3 (Ovarian Cancer), NCI one dose 10 µM): 0%
inhibition at 10 µM (SR; SR (Leukemia), NCI one dose 10 µM): 15.2%
inhibition at 10 µM (M14; M14 (Melanoma), NCI one dose 10 µM): 0%
inhibition at 10 µM (SK-MEL-2; SK-MEL-2 (Melanoma), NCI one dose 10 µM): 0%
inhibition at 10 µM (ACHN; ACHN (Renal Cancer), NCI one dose 10 µM): 0%
inhibition at 10 µM (HCT-15; HCT-15 (Colon Cancer), NCI one dose 10 µM): 0%
inhibition at 10 µM (UO-31; UO-31 (Renal Cancer), NCI one dose 10 µM): 12.2%
inhibition at 10 µM (PC-3; PC-3 (Prostate Cancer), NCI one dose 10 µM): 0%
inhibition at 10 µM (NCI-H322M; NCI-H322M (Non-Small Cell Lung Cancer), NCI one dose 10 µM): 0%
inhibition at 10 µM (OVCAR-4; OVCAR-4 (Ovarian Cancer), NCI one dose 10 µM): 0%
inhibition at 10 µM (U251; U251 (CNS Cancer), NCI one dose 10 µM): 3.23%
inhibition at 10 µM (SN12C; SN 12C (Renal Cancer), NCI one dose 10 µM): 0%
inhibition at 10 µM (786-0; 786-0 (Renal Cancer), NCI one dose 10 µM): 0%
inhibition at 10 µM (A549/ATCC; A549/ATCC (Non-Small Cell Lung Cancer), NCI one dose 10 µM): 0%
inhibition at 10 µM (NCI-H226; NCI-H226 (Non-Small Cell Lung Cancer), NCI one dose 10 µM): 2.19%
inhibition at 10 µM (MALME-3M; MALME-3M (Melanoma), NCI one dose 10 µM): 3.93%
inhibition at 10 µM (LOX IMVI; LOX IMIV (Melanoma), NCI one dose 10 µM): 22.9%
inhibition at 10 µM (BT-549; BT-549 (Breast Cancer), NCI one dose 10 µM): 0%
inhibition at 10 µM (OVCAR-5; OVCAR-5 (Ovarian Cancer), NCI one dose 10 µM): 0%
inhibition at 10 µM (A498; A498 (Renal Cancer), NCI one dose 10 µM): 0%
inhibition at 10 µM (OVCAR-8; OVCAR-8 (Ovarian Cancer), NCI one dose 10 µM): 0%
inhibition at 10 µM (MDA-MB-435; MDA-MB-435 (Melanoma), NCI one dose 10 µM): 0%
inhibition at 10 µM (HL-60(TB); HL-60(TB) (Leukemia), NCI one dose 10 µM): 0%
inhibition at 10 µM (NCI/ADR-RES; NCI/ADR-RES (Ovarian Cancer), NCI one dose 10 µM): 0%
inhibition at 10 µM (MDA-MB-231/ATCC; MDA-MB-231/ATCC (Breast Cancer), NCI one dose 10 µM): 2.18%
